These results are taken from publication PMC8472459, “In Vitro Phenotypic Activity and In Silico Analysis of Natural Products from Brazilian Biodiversity on Trypanosoma cruzi” (Molecules, 2021).

In general, EC50 refers to the midpoint of the concentration-response curve. What is called EC90 is the concentration at which the effect reaches the 90% level.

In brackets after ≈: the same amount, converted by molar mass. Several values for one entry are separate records, joined by “and”; a condition that tells them apart may be missing. Identical values can stand only once. Like-named read-outs stand apart in the source and are kept apart here.

Series [1] concerns intracellular forms of T. cruzi (Tulahuen strain). The experiment in a line: Activity against intracellular forms of T. cruzi (Tulahuen-β gal strain) in infected L929 cell lines, CPRG readout. Type of series: cell-based, Trypanosoma cruzi. Particulars: for SI (Selectivity Index), intracellular forms: LC50 L929 / EC50 intracellular forms; for inhibition at 10 µM / EC50: Trypanosoma cruzi. As to the method:
The crude extracts and the resulting fractions were evaluated following a well standardized protocol of phenotypic analysis for novel drug candidates for CD [25]. The first approach was the screening against intracellular amastigotes (Tulahuen-β gal strain, DTU VI) using a fixed concentration of 10 µg/mL, which corresponds to the 90% effective concentration (EC90)value of the reference drug (Bz) for CD (Table 1). The leaves fraction using dichloromethane from Aureliana fasciculata var. fasciculata (AFfPD) sterilized T. cruzi infection in L929 cell lines, leading to 100% of infection reduction. […] Natural products from fruit pulp of C. cujete have no trypanocidal effect at a concentration of 10 µg/mL.
Culture derived trypomastigotes of Tulahuen strain (DTU VI), transfected with the β-galactosidase gene from Escherichia coli, were collected from the supernatant of previously infected L929 fibroblasts. Trypomastigotes were used to infect L929 cultures at a ratio of 10:1 (parasites/host cell) to determine activity against intracellular forms. After 2 h of interaction, the cultures were washed for the removal of remaining parasites and incubated for 48 h to ensure the establishment of the infection. On the first set of assays, the compounds were added in a fixed concentration (10 µg/mL or 10 µM for the extracts and purified fractions, respectively) that corresponds to EC90 of Bz. The non-infected cells (controls) were treated with DMSO and Bz and were also evaluated. The compounds that reached the same or higher activity than Bz were later evaluated in assays with increasing concentrations (serially diluted (7-fold): 0–50 µg/mL for extracts and fractions and 0–50 µM for purified compounds and Bz) for the determination of the EC50 and EC90 values (minimal concentration able to reduce to 50% and 90% of the infection index in cultures). In both assays the cultures were maintained at 37 °C for 96 h to enable the calculation of the inhibition percentage on the infection. Thereafter, 500 μM of substrate CPRG (chlorophenol red-β-D-galactopiranosideo) in 0.5% Nonidet P40 (Sigma-Aldrich, St. Louis, MO, United States) were added to the in vitro system. The plates were incubated for 18 h at 37 °C and, following, the absorbance was measured at 570 nm. […] All the assays were conducted in duplicate at least three times.

In series [2] the test system is bloodstream trypomastigotes of T. cruzi (Y strain). The experiment in a line: Activity against bloodstream trypomastigotes (Y strain), light microscopy count of live parasites. Type of series: cell-based, Trypanosoma cruzi. Particulars: for SI (Selectivity Index), bloodstream trypomastigotes: LC50 cardiac cell cultures / EC50 bloodstream trypomastigotes. As to the method: In addition, the activity of both natural products was also evaluated against bloodstream trypomastigotes (BT), another relevant form of T. cruzi in mammalian hosts (Table 2). […] As cardiomyopathy is one of the main chronic symptoms of CD, next, the cardiotoxicity profile was assessed using primary cultures of mouse cardiac cells (CC) incubated with increasing concentration of both biomolecules and Bz. After […] of incubation with both extracts, no evident cardiac alterations related to cellular density and morphology was observed by light microscopy.
Bloodstream trypomastigotes (BT) of the T. cruzi Y strain (DTU II) were obtained by cardiac punction from Swiss Webster mice during the parasitemia peak and the purified parasites were resuspended in Dulbecco’s modified Eagle medium (DMEM) (Cultilab) supplemented with 10% fetal bovine serum (FBS).

The nature of a further series: in vitro. Type of series: cell-based. The procedure:
(§1) Primary cardiac cell cultures (CC) were obtained from Swiss Webster mice embryo hearts (18 gestation days) as described by Meirelles et al. and were used for toxicity assays. After purification, the cardiac cells were seeded (0.5 × 10^5 cells/well) in 96 wells microplates previously coated with 0.01% gelatin. The cardiac cultures were maintained in Dulbecco’s Modified Eagle’s Medium supplemented with 6% of FBS, 2.5 mM CaCl2, 1 mM L-glutamine, 1mM penicillin and 2% chicken embryo extract. Mice fibroblast of the line NTCL clone 929 (L929) were used for toxicity and anti-T. cruzi activity assays. L929 cells were seeded (4 × 10^3 cells/well) in 96 well microplates and kept in RPMI-1640 medium (Sigma-Aldrich, Missouri, EUA) supplemented with 10% FBS, 1% L-glutamine and 1% penicillin. The cell cultures were maintained at 37 °C at 5% CO2.
(§2) Cell viability was assessed using PrestoBlue (for assay with CC) and AlamarBlue (for assays with L929) with fluorescence and absorbance readouts (560–590 and 570–600 nm, respectively) in a spectrophotometer (Tunable microplates reader VersaMax; Molecular Devices). Additionally, cell morphology aspects were evaluated in a light microscope, as well as the contractability, density and cytoplasmic vacuolization. Cell viability rates were then determined by the LC50 values that correspond to the compound concentration able to reduce in 50% the viability of the cell population.

The subject of the next series is L929 cell lines. The experiment in a line: in vitro. In kind it is cell-based. As to the method:
as §1, §2

Series [3] is described as follows: Cardiotoxicity, primary cardiac cell cultures (PrestoBlue, light microscopy). In kind it is cell-based. The conditions noted are these: Swiss Webster, mouse. As to the method:
as §1, §2

Series [4] relates to cell-derived trypomastigotes. Set-up: method as in PMID 28177047. The conditions noted are these: cited from earlier work.
Series [5] relates to L. amazonensis infected macrophages. Also on record: method as in PMID 30513673. The conditions noted are these: cited from earlier work; for EC50: read-out: EC50 upon infected macrophages.
The subject of series [6] is promastigotes of L. amazonensis. Also on record: method as in PMID 30513673. Particulars: cited from earlier work.
Setting [7] is: TULAHUEN, L929, 96 h, read-out: % of Infection Reduction, 10 μM, 96 h of incubation, L929 cell line infected with Tulahuen strain.
Where [8] appears, read: TULAHUEN, L929, 96 h, read-out: EC50 intracellular forms.
Where [9] appears, read: Trypanosoma cruzi, 2 h, read-out: EC50 bloodstream trypomastigotes, 2 h, Y strain.
[10] abbreviates: Trypanosoma cruzi, 24 h, read-out: EC50 bloodstream trypomastigotes, 24 h, Y strain.
Setting [11] is: Trypanosoma cruzi, 24 h, read-out: EC90 bloodstream trypomastigotes.
[12] abbreviates: TULAHUEN, L929, 96 h, 10 μM, 96 h of incubation, L929 cell line infected with Tulahuen strain, read-out: % of Infection Reduction.
Where [13] appears, read: 96 h, Tulahuen strain, L929 host cells, read-out: EC50 intracellular forms.
Where [14] appears, read: Trypanosoma cruzi, 2 h, Y strain, read-out: EC50 bloodstream trypomastigotes.
[15] abbreviates: Trypanosoma cruzi, 24 h, Y strain, read-out: EC50 bloodstream trypomastigotes.
[16] abbreviates: Trypanosoma cruzi, 24 h, Y strain, read-out: EC90 bloodstream trypomastigotes.

On to Oleanolic acid [Compound 4], for which the “% of Infection Reduction” value in series [1] (10 μM, 96 h of incubation, L929 cell line infected with Tulahuen strain) is on record as 20 ± 18%.

As to `O=C(Cn1ccnc1[N+](=O)[O-])NCc1ccccc1` [Bz, Benznidazole, reference compound], the “SI (Selectivity Index), intracellular forms” value in series [1] (96 h, µM data) was above 66.6; in series [1] (96 h, μg/mL data) it was above 52. Also, the inhibition at 10 µM in series [1] (setting [7]) turned out to be 92 ± 7%. Moreover, the EC50 in series [1] (setting [8]) was 3 ± 0.6 µM; in series [1] (TULAHUEN, L929, 96 h, read-out: EC50 intracellular forms (Tulahuen strain)), 3.8 ± 1.8 µg/mL; in series [2] (Trypanosoma cruzi, 2 h, read-out: EC50 bloodstream trypomastigotes (Y strain), 2 h), above 50 µg/mL; in series [2] (setting [9]) it was above 50 µM; in series [2] (Trypanosoma cruzi, 24 h, read-out: EC50 bloodstream trypomastigotes (Y strain), 24 h), 10.2 ± 0.3 µg/mL; in series [2] (setting [10]), 13.1 ± 3.9 µM. Further, the “% of Infection Reduction after 96 h of Incubation” value in series [1] (fixed concentration of 10 µg/mL, L929 cell lines infected with Tulahuen strain, 96 h) is listed as 90.5 ± 5.7%. In addition, the “SI (Selectivity Index), bloodstream trypomastigotes” value was above 57.1 in series [2] (24 h, µM data) and above 83 in series [2] (24 h, μg/mL data). Also, the EC90 is above 50 µg/mL in series [2] (Trypanosoma cruzi, 2 h, read-out: EC90 bloodstream trypomastigotes (Y strain)); 31.3 ± 8.8 µM in series [2] (setting [11]); 23.3 ± 0.6 µg/mL in series [2] (Trypanosoma cruzi, 24 h, read-out: EC90 bloodstream trypomastigotes (Y strain)). Moreover, the CC50 at 96 h in the series “in vitro” (mouse) was > 200 µg/mL and > 200 µM. For the same compound, in the series on L929 cell lines, the “LC50 L929 cell lines” value was “not toxic up to the higher tested concentration”. Further, the CC50 at 24 h in series [3] was > 750 µg/mL and > 750 µM.

In the case of `C=CC(C)(O)CCC=C(C)C` (stereo not shown) [linalool], the selectivity index in series [4] (cell-derived trypomastigotes) is recorded as 2.9. For the same compound, the “EC50 against cell-derived trypomastigotes” value in series [4] was 0.31 µg/mL (≈ 2.01 µM).

Take `CC(=O)O[C@@H]1CC2C3C[C@H]4O[C@]45[C@@H](O)C=CC(=O)[C@]5(C)C3CC[C@]2(C)[C@@]1(O)[C@H](C)C1CC(C)=C(C)C(=O)O1` (stereo partly shown) [Compound 1, Aurelianolide A]: the “selectivity indexes, infected macrophages” value in series [5] is listed as 5.6. Also, the half-maximal effective concentration (EC50) in series [5] was 2.3 µM; in series [1] (setting [13]) it was 4.6 ± 1.3 µM; in series [2] (setting [14]) it was above 50 µM; in series [2] (setting [15]), 5.68 ± 2.3 µM. Besides, in series [6], the “activity against promastigotes of L. amazonensis” value was “active”. The “SI (Selectivity Index), intracellular forms” value in series [1] (96 h, µM data) was 9.15. For the same compound, the inhibition at 10 µM in series [1] (setting [12]) is above 90%. The “SI (Selectivity Index), bloodstream trypomastigotes” value in series [2] (24 h, µM data) is 2.9. Besides, the EC90 in series [2] (setting [16]) is 8.33 ± 3.9 µM. The CC50 at 96 h in the series “in vitro” (mouse) came out at 42.1 ± 28.3 µM. Besides, in series [3], the CC50 at 24 h stood at 16.4 ± 1.3 µM.

On to `C[C@H]1C(=O)CC[C@@H]2[C@]1(C)CC[C@H]1[C@@]2(C)CC[C@@]2(C)[C@@H]3CC(C)(C)CC[C@]3(C)CC[C@]12C` [Compound 6, Friedelin], for which the inhibition at 10 µM in series [1] (setting [12]) worked out at 0%.

Consider `COc1cc([C@H]2O[C@H](c3cc(OC)c(OC)c(OC)c3)[C@@H](C)[C@@H]2C)cc(OC)c1OC` [Compound 7, (-)-grandisin], for which the inhibition at 10 µM in series [1] (setting [12]) is 25 ± 36%.

Regarding `CC(=O)O[C@@H]1CC2C3CC=C4[C@@H](O)C=CC(=O)[C@]4(C)C3CC[C@]2(C)[C@@]1(O)[C@H](C)C1CC(C)=C(C)C(=O)O1` (stereo partly shown) [Compound 2, Aurelianolide B], in series [5], the “selectivity indexes, infected macrophages” value is recorded as 2.0. The concentration giving a half-maximal response (EC50) in series [5] is 6.43 µM; in series [1] (setting [13]), 1.6 ± 0.4 µM; in series [2] (setting [14]), above 50 µM; in series [2] (setting [15]) it was 5.72 ± 1.3 µM. Moreover, the “activity against promastigotes of L. amazonensis” value in series [6] was “active”. Moreover, the “SI (Selectivity Index), intracellular forms” value in series [1] (96 h, µM data) is given as 17.1. The inhibition at 10 µM in series [1] (setting [12]) was above 90%. Moreover, the “SI (Selectivity Index), bloodstream trypomastigotes” value in series [2] (24 h, µM data) was found to be 5.4. In series [2] (setting [16]), the 90% effect concentration (EC90) is 9.25 ± 3.2 µM. The CC50 at 96 h in the series “in vitro” (mouse) was 27.4 ± 1 µM. In series [3], this compound gave a CC50 at 24 h of 30.9 ± 3.8 µM.

As for `COc1cc(/C=C/C(=O)N2CCC=CC2=O)cc(OC)c1OC` [Compound 8, Piplartine], the “SI (Selectivity Index), intracellular forms” value in series [1] (96 h, µM data) came out at 9. The inhibition at 10 µM in series [1] (setting [7]) was around 50%. Also, the EC50 is 8.1 ± 0.9 µM in series [1] (setting [8]); above 50 µM in series [2] (setting [9]); 5.4 µM in series [2] (setting [10]); 5.38 ± 0.3 µM in series [2] (read-out: EC50 bloodstream trypomastigotes, 24 h, Y strain). In addition, the “SI (Selectivity Index), bloodstream trypomastigotes” value in series [2] (24 h, µM data) is on record as 6.2. In addition, the concentration for an effect of 90% (EC90) in series [2] (setting [11]) was 14.4 ± 5.8 µM. In the series “in vitro” (96 h, read-out: LC50 L929 cell lines), the CC50 at 96 h was determined as 73.1 ± 75.5 µM. Moreover, the CC50 at 24 h in series [3] (24 h, read-out: LC50 cardiac cell cultures) was 33.1 ± 5.9 µM.

`C[C@H]1[C@@H](O)CCC2[C@]3(C)CC[C@@]4(C)C5CC(C)(C)CC[C@]5(C)CC[C@]4(C)C3CC[C@@]21C` (stereo partly drawn) [Compound 3, 3 beta-friedelanol]: in series [1] (setting [12]), the inhibition at 10 µM was 21 ± 10%.
